Laboratory results from patent publication US7879907B2, “3-phenylpropanoic compound activators of receptors of PPAR type and pharmaceutical/cosmetic compositions comprised thereof” (Galderma Research & Development, priority 2007, dated 2011).

Biological target: T1, PPARγ (Gal-hPPAR) (Homo sapiens, UniProt P37231)
T1 construct: The reporter is printed as ERE-βGlob-Luc-SV-Neo
T1 sequence (P37231 238-505 limits assumed): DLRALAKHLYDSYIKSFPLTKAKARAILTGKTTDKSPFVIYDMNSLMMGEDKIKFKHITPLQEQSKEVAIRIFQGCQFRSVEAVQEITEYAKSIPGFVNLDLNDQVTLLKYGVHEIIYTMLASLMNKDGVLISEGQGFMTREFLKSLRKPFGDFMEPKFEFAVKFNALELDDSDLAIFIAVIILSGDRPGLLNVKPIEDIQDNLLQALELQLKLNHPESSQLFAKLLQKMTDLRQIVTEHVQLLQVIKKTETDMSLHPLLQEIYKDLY
Assay: Cross-curve PPAR transactivation test (luciferase reporter, HeLN cells), PPARγ
Type: cell-based
Conditions: HeLN stable transfectants; Schild regression against reference agonist; apparent Kd; read-out: PPAR gamma Kd app
Protocol: The activation of PPAR receptors with an agonist (activator) in HeLN cells leads to the expression of a reporter gene, luciferase, which, in the presence of a substrate, generates light. The modulation of the PPAR receptors is measured by quantifying the luminescence produced after incubating the cells in the presence of a reference agonist. The ligands displace the agonist from its site. The measurement of the activity is performed by quantifying the light produced. This measurement makes it possible to determine the modulatory activity of the compounds according to the invention by determining the constant that is the affinity of the molecule for the PPAR receptor. Since this value can fluctuate depending on the basal activity and the expression of the receptor, it is referred to as Kd apparent (KdApp in nM).
To determine this constant, “cross curves” of the test product against a reference agonist are produced in a 96-well plate: 10 concentrations of the test product plus a concentration 0 are arranged in a line, and 7 concentrations of the agonist plus a concentration 0 are arranged in a column. This is 88 measurement points for 1 product and 1 receptor. […]
The various dilutions of the test products and of the reference ligand are added at a rate of 5 μl per well. […] After 5 minutes, the plates are read by the luminescence detector.

CCCCOc1cc(CCC(=O)O)ccc1CCCc1ccc(OS(=O)(=O)CCCC)c(OC)c1 [Example 5, 3-(4-{3-[4-(butane-1-sulfonyloxy)-3-methoxyphenyl]propyl}-3-butoxyphenyl)propanoic acid]
Kd: 8 nM
